Measurements as given in patent US20240336613A1, “HETEROARYL COMPOUNDS FOR TREATING HUNTINGTON'S DISEASE” (PTC THERAPEUTICS, INC., priority 2021, published 2024).

What follows are molecules tested on Huntingtin protein (HTT) (assay: Endogenous Huntingtin Protein Assay (MSD electrochemiluminescence)). Details: Cpd 72 compared with Cpd 7 in WO2020/005873.
Type: cell-based
Method: Compounds of Formula (I) were tested using the Meso Scale Discovery (MSD) Assay provided in International Application No. PCT/US2016/066042, filed on Dec. 11, 2016 and claiming priority to United States Provisional Application U.S. 62/265,652 filed on Dec. 10, 2015, the entire contents of which are incorporated herein by reference.
The Endogenous Huntingtin Protein assay used in Example 1 was developed using the ELISA-based MSD electrochemiluminescence assay platform.
Meso Scale Discovery (MSD) 96-well or 384-well plates were coated overnight at 4° C. with MW1 (expanded polyglutamine) or MAB2166 monoclonal antibody (for capture) at a concentration of 1 μg/mL in PBS (30 μL per well). Plates were then washed three times with 300 μL wash buffer (0.05% Tween-20 in PBS) and blocked (100 μL blocking buffer; 5% BSA in PBS) for 4-5 hours at room temperature with rotational shaking and then washed three times with wash buffer.
Samples (25 μL) were transferred to the antibody-coated MSD plate and incubated overnight at 4° C. After removal of the lysates, the plate was washed three times with wash buffer, and 25 μL of #5656S (Cell signaling; rabbit monoclonal) secondary antibody (diluted to 0.25 μg/mL in 0.05% Tween-20 in blocking buffer) was added to each well and incubated with shaking for 1 Hour at room temperature. Following incubation with the secondary antibody, the wells were rinsed with wash buffer after which 25 μL of goat anti-rabbit SULFO TAG secondary detection antibody (required aspect of the MSD system) (diluted to 0.25 μg/mL in 0.05% Tween-20 in blocking buffer) was added to each well and incubated with shaking for 1 hour at room temperature. After rinsing three times with wash buffer, 150 μL of read buffer T with surfactant (MSD) were added to each empty well, and the plate was imaged on a SI 6000 imager (MSD) according to manufacturers' instructions provided for 96- or 384-well plates.

| Molecule | potency comparison, 1H-pyrazole moiety replaced with 1H-1,2,3-triazole moiety |
| --- | --- |
| CC1(C)CC(n2nnc3cc(-c4ccc(-n5ccnn5)cc4O)nnc32)CC(C)(C)N1 [Cpd 72 in WO2020/005873, reference compound] | significant loss in potency |

Same assay, conditions: Table 1, Endogenous Huntingtin Protein Assay

| Molecule | IC50 [nM] |
| --- | --- |
| CC1(C)C[C@H](n2ccc3cc(-c4ccc(-n5cc(Cl)nn5)cc4O)nnc32)[C@H](F)C(C)(C)N1 [Cpd 19, 5-(4-chloro-1H-1,2,3-triazol-1-yl)-2-{7-[(3S,4S)-3-fluoro-2,2,6,6-tetramethylpiperidin-4-yl]-7H-pyrrolo[2,3-c]pyridazin-3-yl}phenol] | < 100 |
| Cc1cn(-c2ccc(-c3cc4ccn([C@H]5CCNC6(CC6)C5)c4nn3)c(O)c2)nn1 [Cpd 16, 2-{7-[(7S)-4-azaspiro[2.5]octan-7-yl]-7H-pyrrolo[2,3-c]pyridazin-3-yl}-5-(4-methyl-1H-1,2,3-triazol-1-yl)phenol] | < 100 |
| Cc1cnnn1-c1ccc(-c2cc3ccn([C@H]4CC(C)(C)NC(C)(C)[C@H]4F)c3nn2)c(O)c1 [Cpd 17, 2-{7-[(3S,4S)-3-fluoro-2,2,6,6-tetramethylpiperidin-4-yl]-7H-pyrrolo[2,3-c]pyridazin-3-yl}-5-(5-methyl-1H-1,2,3-triazol-1-yl)phenol] | 100 to 500 |
| Cc1cn(-c2ccc(-c3cc4ccn([C@H]5CC(C)(C)NC(C)(C)[C@H]5F)c4nn3)c(O)c2)nn1 [Cpd 15, 2-{7-[(3S,4S)-3-fluoro-2,2,6,6-tetramethylpiperidin-4-yl]-7H-pyrrolo[2,3-c]pyridazin-3-yl}-5-(4-methyl-1H-1,2,3-triazol-1-yl)phenol] | < 100 |

Same assay, conditions: Table 1, Endogenous Huntingtin Protein Assay; read-out: IC50

| Molecule | IC50 [nM] |
| --- | --- |
| 2-{7-[(8R,9R)-9-fluoro-5-azaspiro[3.5]nonan-8-yl]-7H-pyrrolo[2,3-c]pyridazin-3-yl}-5-(1H-1,2,3-triazol-1-yl)phenol and 2-{7-[(8S,9S)-9-fluoro-5-azaspiro[3.5]nonan-8-yl]-7H-pyrrolo[2,3-c]pyridazin-3-yl}-5-(1H-1,2,3-triazol-1-yl)phenol [Cpd 23] | < 100 |
| CC1(C)C[C@H](n2ccc3cc(-c4c(O)cc(-n5ccnn5)cc4F)nnc32)[C@H](F)C(C)(C)N1 [Cpd 27, 3-fluoro-2-{7-[(3S,4S)-3-fluoro-2,2,6,6-tetramethylpiperidin-4-yl]-7H-pyrrolo[2,3-c]pyridazin-3-yl}-5-(1H-1,2,3-triazol-1-yl)phenol] | < 100 |
| 2-{7-[(1S,2S,3R,5R)-2-fluoro-8-azabicyclo[3.2.1]octan-3-yl]-7H-pyrrolo[2,3-c]pyridazin-3-yl}-5-(1H-1,2,3-triazol-1-yl)phenol and 2-{7-[(1R,2R,3S,5S)-2-fluoro-8-azabicyclo[3.2.1]octan-3-yl]-7H-pyrrolo[2,3-c]pyridazin-3-yl}-5-(1H-1,2,3-triazol-1-yl)phenol [Cpd 20] | < 100 |
| Oc1cc(-n2ccnn2)ccc1-c1cc2ccn([C@@H]3CCNC4(CC4)C3)c2nn1 [Cpd 11, 2-{7-[(7R)-4-azaspiro[2.5]octan-7-yl]-7H-pyrrolo[2,3-c]pyridazin-3-yl}-5-(1H-1,2,3-triazol-1-yl)phenol] | < 100 |
| 2-{7-[(3R,4S)-3-fluoro-2,2,6,6-tetramethylpiperidin-4-yl]-7H-pyrrolo[2,3-c]pyridazin-3-yl}-5-(1H-1,2,3-triazol-1-yl)phenol and 2-{7-[(3S,4R)-3-fluoro-2,2,6,6-tetramethylpiperidin-4-yl]-7H-pyrrolo[2,3-c]pyridazin-3-yl}-5-(1H-1,2,3-triazol-1-yl)phenol [Cpd 3] | < 100 |
| Oc1cc(-n2ccnn2)ccc1-c1cc2ccn([C@H]3CCNC4(CC4)C3)c2nn1 [Cpd 13, 2-{7-[(7S)-4-azaspiro[2.5]octan-7-yl]-7H-pyrrolo[2,3-c]pyridazin-3-yl}-5-(1H-1,2,3-triazol-1-yl)phenol] | < 100 |
| 2-{7-[(1S,2R,3R,5R)-2-fluoro-1,5-dimethyl-8-azabicyclo[3.2.1]octan-3-yl]-7H-pyrrolo[2,3-c]pyridazin-3-yl}-5-(1H-1,2,3-triazol-1-yl)phenol and 2-{7-[(1R,2S,3S,5S)-2-fluoro-1,5-dimethyl-8-azabicyclo[3.2.1]octan-3-yl]-7H-pyrrolo[2,3-c]pyridazin-3-yl}-5-(1H-1,2,3-triazol-1-yl)phenol [Cpd 21] | < 100 |
| CN1CCC(n2ccc3cc(-c4ccc(-n5ccnn5)cc4O)nnc32)CC12CC2 (centres unmarked) [Cpd 7, 2-[7-(4-methyl-4-azaspiro[2.5]octan-7-yl)-7H-pyrrolo[2,3-c]pyridazin-3-yl]-5-(1H-1,2,3-triazol-1-yl)phenol] | < 100 |
| Oc1cc(-n2ccnn2)ccc1-c1cc2ccn(C3CC4(CC4)NC4(CC4)C3)c2nn1 (centres unmarked) [Cpd 24, 2-[7-(4-azadispiro[2.1.2^5.3^3]decan-9-yl)-7H-pyrrolo[2,3-c]pyridazin-3-yl]-5-(1H-1,2,3-triazol-1-yl)phenol] | < 100 |
| 2-{7-[(3S,4S)-3-fluoro-2,2,6,6-tetramethylpiperidin-4-yl]-7H-pyrrolo[2,3-c]pyridazin-3-yl}-5-(1H-1,2,3-triazol-1-yl)phenol and 2-{7-[(3R,4R)-3-fluoro-2,2,6,6-tetramethylpiperidin-4-yl]-7H-pyrrolo[2,3-c]pyridazin-3-yl}-5-(1H-1,2,3-triazol-1-yl)phenol [Cpd 2] | < 100 |
| 2-{7-[(8S,9R)-8-fluoro-6-azaspiro[4.5]decan-9-yl]-7H-pyrrolo[2,3-c]pyridazin-3-yl}-5-(1H-1,2,3-triazol-1-yl)phenol and 2-{7-[(8R,9S)-8-fluoro-6-azaspiro[4.5]decan-9-yl]-7H-pyrrolo[2,3-c]pyridazin-3-yl}-5-(1H-1,2,3-triazol-1-yl)phenol [Cpd 25] | 100 to 500 |
| CC1(C)C[C@H](n2ccc3cc(-c4ccc(-n5ccnn5)cc4O)nnc32)[C@H](F)C(C)(C)N1 [Cpd 8] | < 100 |
| 5-(1H-1,2,3-triazol-1-yl)-2-{7-[(4RS)-1,2,2-trimethylpiperidin-4-yl]-7H-pyrrolo[2,3-c]pyridazin-3-yl}phenol [Cpd 6] | 500 to 1000 |
| Cc1cnnn1-c1ccc(-c2cc3ccn([C@H]4CCNC5(CC5)C4)c3nn2)c(O)c1 [Cpd 18, 2-{7-[(7S)-4-azaspiro[2.5]octan-7-yl]-7H-pyrrolo[2,3-c]pyridazin-3-yl}-5-(5-methyl-1H-1,2,3-triazol-1-yl)phenol] | 500 to 1000 |

Next, values leading:

| IC50 [nM] | Molecule |
| --- | --- |
| < 100 | CC1(C)CC(n2ccc3cc(-c4ccc(-n5ccnn5)cc4O)nnc32)CCN1 (racemic) [Cpd 5, 2-{7-[(4RS)-2,2-dimethylpiperidin-4-yl]-7H-pyrrolo[2,3-c]pyridazin-3-yl}-5-(1H-1,2,3-triazol-1-yl)phenol] |
| < 100 | CC1(C)CC(n2ccc3cc(-c4ccc(-n5ccnn5)cc4O)nnc32)CC(C)(C)N1 [Cpd 1, 2-[7-(2,2,6,6-tetramethylpiperidin-4-yl)-7H-pyrrolo[2,3-c]pyridazin-3-yl]-5-(1H-1,2,3-triazol-1-yl)phenol] |
| < 100 | CC1(C)C[C@H](n2ccc3cc(-c4ccc(-n5ccnn5)cc4O)nnc32)[C@H](F)CN1 [Cpd 22, 2-{7-[(4S,5R)-5-fluoro-2,2-dimethylpiperidin-4-yl]-7H-pyrrolo[2,3-c]pyridazin-3-yl}-5-(1H-1,2,3-triazol-1-yl)phenol] |
| 100 to 500 | Cc1cc2cc(-c3ccc(-n4ccnn4)cc3O)nnc2n1C1CCNC2(CC2)C1 (centres unmarked) [Cpd 9, 2-[7-(4-azaspiro[2.5]octan-7-yl)-6-methyl-7H-pyrrolo[2,3-c]pyridazin-3-yl]-5-(1H-1,2,3-triazol-1-yl)phenol] |
| < 100 | CC1(C)C[C@H](n2ccc3cc(-c4cc(F)c(-n5ccnn5)cc4O)nnc32)[C@H](F)C(C)(C)N1 [Cpd 26, 4-fluoro-2-{7-[(3S,4S)-3-fluoro-2,2,6,6-tetramethylpiperidin-4-yl]-7H-pyrrolo[2,3-c]pyridazin-3-yl}-5-(1H-1,2,3-triazol-1-yl)pheno] |
| < 100 | Oc1cc(-n2ccnn2)cnc1-c1cc2ccn([C@H]3CCNC4(CC4)C3)c2nn1 [Cpd 14, 2-{7-[(7S)-4-azaspiro[2.5]octan-7-yl]-7H-pyrrolo[2,3-c]pyridazin-3-yl}-5-(1H-1,2,3-triazol-1-yl)pyridine-3-ol] |
| < 100 | Cc1cc2cc(-c3ccc(-n4ccnn4)cc3O)nnc2n1[C@H]1CC(C)(C)NC(C)(C)[C@H]1F [Cpd 10, 2-{7-[(3S,4S)-3-fluoro-2,2,6,6-tetramethylpiperidin-4-yl]-6-methyl-7H-pyrrolo[2,3-c]pyridazin-3-yl}-5-(1H-1,2,3-triazol-1-yl)phenol] |

Same assay, conditions: Table 2, comparison compounds tested according to the assay of Example 1; read-out: IC50

| IC50 [nM] | Molecule |
| --- | --- |
| 0.8 | CC1(C)CC(n2ccc3cc(-c4ccc(-n5ccnn5)cc4O)nnc32)CC(C)(C)N1 [Cpd 1, 2-[7-(2,2,6,6-tetramethylpiperidin-4-yl)-7H-pyrrolo[2,3-c]pyridazin-3-yl]-5-(1H-1,2,3-triazol-1-yl)phenol] |
| 6.4 | CC1(C)CC(n2nnc3cc(-c4ccc(-c5cn[nH]c5)cc4O)nnc32)CC(C)(C)N1 [Cpd 7 in WO2020/005873, reference compound] |
| 179 | CC1(C)CC(n2nnc3cc(-c4ccc(-n5ccnn5)cc4O)nnc32)CC(C)(C)N1 [Cpd 72 in WO2020/005873, reference compound] |
| 7.1 | CC1(C)CC(n2ccc3cc(-c4ccc(-c5cn[nH]c5)cc4O)nnc32)CC(C)(C)N1 [Cpd 26 in WO2020/005873, reference compound] |

Same assay, conditions: compared with Cpd 26 in WO2020/005873 (1H-pyrazole replaced with 1H-1,2,3-triazole)

| Molecule | improvement in potency |
| --- | --- |
| CC1(C)CC(n2ccc3cc(-c4ccc(-n5ccnn5)cc4O)nnc32)CC(C)(C)N1 [Cpd 1, 2-[7-(2,2,6,6-tetramethylpiperidin-4-yl)-7H-pyrrolo[2,3-c]pyridazin-3-yl]-5-(1H-1,2,3-triazol-1-yl)phenol] | over 8 fold |

Same assay, conditions: compared with Cpd 72 in WO2020/005873 (3H-[1,2,3]-triazolo[4,5-c]pyridazine core)

| Molecule | improvement in potency [fold] |
| --- | --- |
| CC1(C)CC(n2ccc3cc(-c4ccc(-n5ccnn5)cc4O)nnc32)CC(C)(C)N1 [Cpd 1, 2-[7-(2,2,6,6-tetramethylpiperidin-4-yl)-7H-pyrrolo[2,3-c]pyridazin-3-yl]-5-(1H-1,2,3-triazol-1-yl)phenol] | 223 |
